From patent publication US9981071B2, “Drug delivery medical device” (Micell Technologies, Inc., priority 2008, dated 2018)
One block for each molecule: values may come before it.

Legend:
[1] = tested on: bladder cancer recurrence; settings: 40 mg/20 cc vs 20 mg/20 cc, dehydration, bladder emptying, alkalinization with sodium bicarbonate; cited from earlier work
[2] = acid urine; cited from earlier work
[3] = design: dose or concentration left out as unconfirmed; settings: estradiol release, as its 3-acetate ester; cited from earlier work
[4] = Bulk drug in arterial tissue surrounding the implanted stent; format: in vivo, Yucatan pig
Protocol: Another sample of the coated stent was prepared for in vivo evaluation in a porcine coronary artery model using the Yucatan pig. Subjects were initially given 650 mg acetylsalicylic acid and 300 mg Plavix. Maintenance doses of 81 mg acetylsalicylic acid and 75 mg Plavix were administered. The target ACT (activated clotting time) for the procedure was about 250 seconds. Stent oversizing in relation to the artery was about 10-20%. The preparation of the sirolimus-coated stent was the same as described in Example 1 and used for the in vitro deployment into tubing, except that the device was sterilized using ETO prior to implantation into the animal.
The bulk concentration of drug was measured in the arterial tissue surrounding the implanted stent at 1, 3, 7, 14, and 28 days after implant, and provided a quantitative measure of the high efficiency of transfer of drug into the therapeutic site using devices and methods of the invention. The amount of drug that was detected in the arterial tissue was as follows: 1 day after implant, ˜6 μg; 3 days after implant, ˜16 μg; 7 days after implant, ˜30 μg; 14 days after implant, ˜30 μg; 28 days after implant, ˜13 μg. Peak tissue concentration of sirolimus of ˜30 μg at 14 days after implant was representative of approximately ⅙ of the total drug that had been loaded on the stent. Note that some drug likely metabolized or diffused out of the arterial tissue into other areas of the body.

SMILES: CO[C@@]12[C@H](COC(N)=O)C3=C(C(=O)C(C)=C(N)C3=O)N1C[C@@H]1N[C@@H]12 [Mitomycin C]
recurrence with optimized schedule [1]: nearly cut in half | stability in urine [2]: inactivated by acid urine

SMILES: C[C@]12CC[C@@H]3c4ccc(O)cc4CC[C@H]3[C@@H]1CC[C@@H]2O [estradiol]
circulating plasma concentration maintained [3]: 300 pmol/L

amount of drug detected in the arterial tissue ([4]; 1 day after implant): ~6 µg | amount of drug detected in the arterial tissue ([4]; 3 days after implant): ~16 µg | amount of drug detected in the arterial tissue ([4]; 7 days after implant): ~30 µg | amount of drug detected in the arterial tissue ([4]; 14 days after implant): ~30 µg | peak tissue level as fraction of the total drug loaded on the stent ([4]; 14 days after implant): approximately ⅙ | amount of drug detected in the arterial tissue ([4]; 28 days after implant): ~13 µg
SMILES: CO[C@H]1C[C@@H]2CC[C@@H](C)[C@@](O)(O2)C(=O)C(=O)N2CCCC[C@H]2C(=O)O[C@H]([C@H](C)C[C@@H]2CC[C@@H](O)[C@H](OC)C2)CC(=O)[C@H](C)/C=C(\C)[C@@H](O)[C@@H](OC)C(=O)[C@H](C)C[C@H](C)/C=C/C=C/C=C/1C [sirolimus]
